Measured values reported in PMC10989504 (RSC Chemical Biology, 2024).

What was measured:
[1] = biological target: T1, papain (Carica papaya, UniProt P00784); assay: Papain inhibition; format: biochemical; settings: TD19 at 10 μM; E64 and IAA positive controls
T1 sequence (P00784 134-345): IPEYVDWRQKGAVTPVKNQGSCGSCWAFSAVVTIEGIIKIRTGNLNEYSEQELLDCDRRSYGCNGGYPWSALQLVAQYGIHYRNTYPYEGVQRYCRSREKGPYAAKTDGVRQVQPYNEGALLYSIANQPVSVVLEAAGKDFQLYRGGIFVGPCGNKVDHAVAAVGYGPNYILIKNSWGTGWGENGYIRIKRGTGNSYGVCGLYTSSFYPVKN

[2] = tested on: AML and GBM cells; assay: Viability of AML and GBM cells, control compound; settings: 72 h, MTT/CCK8, in words
[3] = biological target: FTO (Homo sapiens, UniProt Q9C0B1); assay: PAGE-based demethylation assay, FTO; format: biochemical; settings: compound at 50 μM
[4] = biological target: T2, ALKBH5 (Homo sapiens, UniProt Q6P6C2); assay: PAGE-based demethylation assay, ALKBH5; format: biochemical; settings: compound at 50 μM
[5] = biological target: T2, ALKBH5; assay: FRET-based m6A detection assay, ALKBH5; settings: preincubation for various durations, in words
[6] = biological target: ALKBH5 C100SC267S (human, UniProt Q6P6C2 66-292, C100S;C267S); assay: pull-down
Sequence of ALKBH5 C100SC267S (Q6P6C2 66-292 C100S/C267S): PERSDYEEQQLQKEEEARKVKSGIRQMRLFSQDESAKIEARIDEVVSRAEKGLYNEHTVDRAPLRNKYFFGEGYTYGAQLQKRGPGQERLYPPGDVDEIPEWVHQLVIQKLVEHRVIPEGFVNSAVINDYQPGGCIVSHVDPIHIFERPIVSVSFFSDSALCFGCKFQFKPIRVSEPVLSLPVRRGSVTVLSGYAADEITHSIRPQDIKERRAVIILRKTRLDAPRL

T2 sequence (Q6P6C2 66-292 limits assumed): as the sequence (Q6P6C2 66-292 C100S/C267S) above, with S35C, S202C counted along it
Sequence of FTO (Q9C0B1 32-505 limits assumed): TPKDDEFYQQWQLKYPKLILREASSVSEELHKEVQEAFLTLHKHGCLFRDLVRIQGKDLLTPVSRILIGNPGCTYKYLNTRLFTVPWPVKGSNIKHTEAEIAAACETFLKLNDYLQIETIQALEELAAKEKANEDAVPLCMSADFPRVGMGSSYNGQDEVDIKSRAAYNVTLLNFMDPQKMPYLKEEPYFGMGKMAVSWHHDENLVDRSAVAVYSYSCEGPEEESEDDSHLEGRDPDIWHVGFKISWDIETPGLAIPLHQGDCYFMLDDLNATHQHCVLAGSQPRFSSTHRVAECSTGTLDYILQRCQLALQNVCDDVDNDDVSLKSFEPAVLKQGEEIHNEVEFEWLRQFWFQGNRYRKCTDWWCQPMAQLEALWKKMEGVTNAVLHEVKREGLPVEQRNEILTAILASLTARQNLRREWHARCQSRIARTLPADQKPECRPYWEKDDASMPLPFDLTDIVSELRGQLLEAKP

Molecule	Inhibition of papain [1]	Inhibition of ALKBH5 demethylation of dm6A-modified substrate [4]	also measured
CC(C)C[C@H](NC(=O)[C@H]1O[C@@H]1C(=O)O)C(=O)NCCCCN=C(N)N (relative stereo) [E64, L-trans-epoxysuccinyl-leucylamido(4-guanidino)butane]	significant inhibition	–	–
Cc1noc(C)c1-c1cc(Cl)c(Nc2ccccc2C(=O)NO)c(Cl)c1 [FB23-2]	–	–	Antiproliferative activity compared with TD19 [2]: displayed better activities than TD19
NC(=O)CI [IAA, iodoacetamide]	significant inhibition	did not inhibit	Inhibition of FTO demethylation of dm6A-modified substrate [3]: did not inhibit
CCN1C(=O)C=CC1=O [NEM, N-ethylmaleimide]	–	inhibited the demethylation	–
O=C(O)c1cc(O)c2c(c1)C(=O)c1cccc(O)c1C2=O [rhein]	–	–	Time dependence and reversibility of ALKBH5 inhibition [5]: time-independent and reversible
TTTTTTGGACT (ssDNA, N6-methyl-deoxyadenosine at position 9) [5'-biotin-TEG dm6A DNA]	–	–	binding result [6]: binds
